Experimental data as given in patent publication EP0546474A1, “Pseurotin F1/F2, new metabolites from Aspergillus fumigatus, process for their preparation and their use as apomorphine antagonists” (HOECHST AKTIENGESELLSCHAFT, priority 1991, dated 1993).

Legend:
[1] = tested on: Mäusen; assay: Apomorphine antagonism: inhibition of apomorphine-induced climbing in mice; type: in vivo; conditions: compound given 30 min (i.p.) or 60 min (p.o.) before apomorphine
Procedure: Die Wirkung der Verbindungen der Formeln la und Ib als Apomorphin Antagonisten wird an Mäusen getestet. Hierzu wird zunächst Apomorphin als 1 %ige Lösung (Verdünnungsmittel:Tylose, z.B. Methocel, Hoechst AG, Frankfurt, Deutschland) einmalig […] injiziert. Die Dosis ist so gewählt, daß sie bei 95 % der Mäuse für ca. 30 Minuten eine anhaltende Klettertätigkeit auslöst (1,5 mg Apomorphin/kg Maus; subcutane Injektion). Tiere, die noch vor der Apomorphingabe eine konstante Klettertätigkeit aufweisen, werden nicht im Test berücksichtigt. Pseurotin F1 oder F2 wird 30 bzw. 60 Min. vor Apomorphin appliziert (i.p. bzw. p.o.). Es wird viermal abgelesen: unmittelbar vor sowie 10, 20 und 30 Min nach Apomorphin-Injektion. Dabei wird das Kletterverhalten pro Maus beurteilt:
Testkriterium ist, ob eine Hemmung des durch Apomorphin verursachten Kletterns eintritt.

[2] = Stability in the solid state and in solution; type: physicochemical; conditions: solid state and solutions in the pH range between 3 and 8, in particular 5 and 7
From the text: Die Verbindungen der Formeln la und Ib sind im festen Zustand und in Lösungen im pH-Bereich zwischen 3 und 8, insbesondere 5 und 7, stabil und lassen sich damit in übliche galenische Zubereitungen einarbeiten.

[3] = Solubility in organic solvents; type: physicochemical; conditions: in CH2C12, CHCl3, Essigsäureethylester, Aceton, Ethanol and Isopropanol; isolated as amorphous solid
From the text: Die Pseurotine F1 /F2 werden als amorpher Feststoff isoliert und sind z.B. löslich in CH2C12, CHCl3, Essigsäureethylester, Aceton, Ethanol und Isopropanol. • FAB-MS: m/e = 418 (37 %, [M + H]^+), 400 (12 %) 382 (14 %) • Pseurotin F1: Rf = 0,29; Ethylacetat-H/Heptan (2 : 1) • Pseurotin F2: Rf = 0,20; Ethylacetat-H/Heptan (2:1) (dünnschichtchromatographisch aufgetrennt) Molmasse: 417, 12 (C21 H23NO8)

[4] = 10 min after apomorphine injection (1,5 mg/kg, s.c.), observed in the majority of treated mice
[5] = 20 min after apomorphine injection (1,5 mg/kg, s.c.), observed in nearly all animals

Row | Structure (SMILES) | Kletterverhalten pro Maus (Hemmung des durch Apomorphin verursachten Kletterns) [1, 4] | Kletterverhalten pro Maus (Hemmung des durch Apomorphin verursachten Kletterns) [1, 5] | Stabilität [2] | Löslichkeit [3]
1 | CC/C=C\[C@H](O)[C@H](O)C1=C(C)C(=O)[C@]2(O1)C(=O)N[C@](O)(C(=O)c1ccccc1)[C@@H]2O [Pseurotin F1] | nur noch 1 oder 2 Pfoten an der Wand | deutliche Symptome in Form der Kletterhemmung (4 Pfoten am Boden) | stabil | löslich
2 | CC/C=C\[C@H](O)[C@H](O)C1=C(C)C(=O)[C@]2(O1)C(=O)N[C@@](O)(C(=O)c1ccccc1)[C@@H]2O [Pseurotin F2] | nur noch 1 oder 2 Pfoten an der Wand | deutliche Symptome in Form der Kletterhemmung (4 Pfoten am Boden) | stabil | löslich
